Assay results from article doi:10.1101/2021.09.30.462449v1 (biorxiv, 2021).

The molecules below were run against PL^pro (Severe acute respiratory syndrome coronavirus 2, UniProt P0DTD1) (assay: FRET peptide cleavage assay).
Type: biochemical

SMILES | IC50
COc1ccc2nc3cc(Cl)ccc3c(Nc3ccc(O)cc3)c2c1 [compound 2, 4-[(6-chloro-2-methoxyacridin-9-yl)amino]phenol] | > 20 µM
COc1ccc2nc3cc(Cl)ccc3c(Nc3cc(CN(C)C)c(O)c(CN(C)C)c3)c2c1 [compound 3, 4-[(6-chloro-2-methoxyacridin-9-yl)amino]-2,6-bis[(dimethylamino)methyl]phenol] | 3.28 ± 0.4 µM
COc1ccc2nc3cc(Cl)ccc3c(Nc3ccc(O)c(CN4CCCC4)c3)c2c1 [compound 4, 4-[(6-chloro-2-methoxyacridin-9-yl)amino]-2-(pyrrolidin-1-ylmethyl)phenol] | 2.56 ± 0.28 µM
COc1ccc2nc3cc(Cl)ccc3c(Nc3cc(CN4CCCC4)c(O)c(CN4CCCC4)c3)c2c1 [compound 5, 4-[(6-chloro-2-methoxyacridin-9-yl)amino]-2,6-bis(pyrrolidin-1-ylmethyl)phenol] | 2.44 ± 0.53 µM
COc1ccc2nc3cc(Cl)ccc3c(O)c2c1 [compound 6, 6-chloro-2-methoxyacridin-9-ol] | > 20 µM
COc1ccc2nc3cc(Cl)ccc3c(N3CCOCC3)c2c1 [compound 7, 6-chloro-2-methoxy-9-morpholin-4-ylacridine] | > 20 µM
N#Cc1c(N2CCOCC2)ncc2cc3ccccc3nc12 [compound 9, 3-morpholin-4-ylbenzo[b]-1,6-naphthyridine-4-carbonitrile] | > 20 µM
N#Cc1c(N2CCOCC2)ncc2c(=O)c3ccccc3[nH]c12 [compound 10, 3-morpholin-4-yl-10-oxo-5,10-dihydrobenzo[b]-1,6-naphthyridine-4-carbonitrile] | > 20 µM
